Experimental data published in patent publication US6342517B1, “Potassium channel activators and their use” (Cambridge Bioclinical Limited, priority 1998, dated 2002).
Each block holds one compound with its values, some of them ahead of it.

Key:
NIH 3T3 fibroblasts = experiment: Cell growth potentiation test (potentiation of mitogenic activity of fetal calf serum, EZ4U cellular proliferation assay); format: cell-based; conditions: for Cell growth potentiation relative to minoxidil at 100 μM (%): 0% = base concentration of FCS alone (5% or 3%), 100% = minoxidil at 100 μM; for Cell growth relative to FCS alone (%): 100% = same growth as base concentration of FCS alone
From the text: To test for activity in mammalian hair growth stimulation, an in vitro test of cell growth potentiation has been applied to a number of the compounds of the invention and prior art compounds 11901 and 11903. The test involves an assay of the call growth due to potentiation of the mitogenic activity of fetal calf serum (FCS). See WO97/14036. Details of materials, methods and results are as follows.
Tissue culture plastics were obtained from Beckton Dickinson (Cowley, Oxford, UK). NIH 3T3 fibroblasts were obtained from the European collection of animal cell cultures (Salisbury, Wilts, UK). Dulbecco's modified Eagle's medium (DMEM) was obtained from Flow Laboratories (Rickmansworth, Herts, UK). L-Glutamine and fetal calf serum were from Gibco (Paisley, UK).
The EZ4U cell proliferation assay kits were obtained from Cozart Bioscience Ltd (Abingdon, Oxon, UK). All other chemicals were obtained from Sigma Chemical Company Ltd. (Poole, Dorset, UK), and of the highest grade available.
NIH 3T3 fibroblasts were maintained in Dulbecco's modified Eagle's medium supplemented with 10% FCS and 2 mM L-glutamine in 150 cm^2 tissue culture flasks at 37° C. in an atmosphere of 5% CO2/95% air. Antibiotics were omitted. Medium was changed every 3 days, and passages were carried out twice a week before cells reached confluence. Prior to experiments, cells were passaged and plated out to give 10^4 cell/ml in 96-well multi-well plates. Cells were incubated for 24 hours with Dulbecco's modified Eagle's medium supplemented with 10% FCS to aid attachment. This was then removed and the experimental medium added.
Compounds were prepared following a general preparation protocol. This protocol consisted of taking a mass of compound, dissolving in the recommended solvent (40 μl) such that in the final preparation the concentrations of compound and solvent would be 100 μM and 0.1 respectively. In theory this volume was 40 μl, however for accuracy a mass larger than the required mass was dispensed and the solvent volume varied accordingly; only 40 μl of this solution was required for the next stage. The 40 μl volume was then added to a volume of FCS (1.2 ml), such that in the final preparation the concentration of FCS would be 3%. This solution was then added to DMEM containing L-glutamine (2 mM) (18.76 ml). The resulting solution of 20 ml volume was filter stabilised. This solution is now 200 μM in compound, 6% FCS and 0.2% solvent, and so was diluted 1:1 with the DMEM containing L-glutamine. This 100 μM stock could then be diluted serially to provide lower concentrations of the compound of interest. Solutions containing different ratios of compound and FCS were obtained in a similar manner.
This was performed, following the manufacturer's instructions, using an EZ4U assay kit, which is based upon the conversion of tetrazolium salt to coloured formazam derivatives by mitochondria (Hansen et al, 1989). Plates were read on a plate reader (Anthos Labtec HT2), using a measurement filter (450 nm), with a reference filter (620 nm) with a low Shaking density for 5 seconds prior to measurement. Control experiments were made against counting cells in a haemocytometer (sanders et al, 1996). There is some variance of results between different batches of FCS employed.
A series of cell growth potentiation/inhibition tests has been carried out in accordance with the procedure described above on some of the compounds of the invention, on compounds 11901 and 11903 and on minoxidil (a compound well known for its hair growth stimulation effects). Because of some variability of results with different batches of FCS, each compound was tested in a solution of a base concentration of FCS and was compared with minoxidil in a solution of the same base concentration of FCS and with a solution having the same base concentration of FCS alone (no additive), using the same FCS batch in order to provide standardised comparisons for that compound. […]

[1] = test system: K+-stimulated isolated rat aorta; experiment: K+-stimulated isolated rat aorta test; conditions: relaxation of contraction triggered by 25 mM KCl in rat aorta rings; asterisk (*) = low activity, only approximate value
Description: K^+-stimulated Isolated Rat Aorta Test
Male rats weighing about 300 g are killed painlessly by a blow to the neck and quickly exsanguinated. The thoracic cavity is opened and the aorta is carefully resectioned. It is placed in a Petri dish filled with Krebs solution, and surrounding connective and fatty tissue is removed. Two rings are prepared. The rings are each suspended in an organ bath, They are attached at the bottom to a hook and at the top to an electrical force transducer which is able to measure precisely contractions of 0-10 grams in strength. The measured contractions are amplified by means of a bridge amplifier and recorded with a thermal plotter.
The organ baths are filled with Krebs solution at 37° C. through which an O2/CO2 mixture is bubbled thoroughly and which has the following composition (mmol/1): NaCl 118.4; KCl 4.7; CaCl2 2.5; KH2PO4 1.2; MgSO4 1.2; NaHCO3 25; glucose 11.
The rings are stretched with a basic tone of about 0.5 g, After an equilibration time of about 30 minutes, the rings are caused to undergo contraction by depolarization (addition of 25 mM KCl to the organ bath). The contractions of the rings of aorta, triggered by the depolarization, quickly reach a plateau, As soon as this plateau is reached (“100% value”), the test substance is added to the organ bath, initially at low concentrations, for example 10^−8M, and then in increasing doses at regular intervals, until the contractions reduce or the final concentration of 10^−4M is reached. Each test substance is tested 2-4 times in this way.
For purposes of evaluation, the height of the contractions registered on the plotter paper is measured for each experiment after the action of each test concentration added. The IC50 value can be calculated in this way in relation to the original height of contractions before the addition of substance (100%).

Compound: 5,5-Dimethyl-7-(2-oxo-1-pyrrolidinyl)-2-(thiazolin-2-yl)-5-thieno[3,2-b]pyran [Compound 50133]
Cell growth potentiation relative to minoxidil at 100 μM (%) (NIH 3T3 fibroblasts; Compound at 10 μM): 54%
Cell growth relative to FCS alone (%) (NIH 3T3 fibroblasts; Compound at 100 μM): 60%

Compound: 6′,7′-Dihydro-5′,5′-dimethylspiro[1,3-dithialane-2,7′-5H-thieno[3,2-b]pyran]-2′-carbonitrile [Compound 50066]
IC50 [1]: ~10 µM
Cell growth potentiation relative to minoxidil at 100 μM (%) (NIH 3T3 fibroblasts; Compound at 10 μM): 355%
Cell growth potentiation relative to minoxidil at 100 μM (%) (NIH 3T3 fibroblasts; Compound at 100 μM): 144%

Compound: 6′,7′-Dihyrdro-5′,5′-dimethylspiro[1,3-dithiolane-2,7′-5H-thieno[3,2-b]pyran] [Compound 50063]
IC50 [1]: ~10 µM
Cell growth relative to FCS alone (%) (NIH 3T3 fibroblasts; Compound at 10 μM): 55%
Cell growth relative to FCS alone (%) (NIH 3T3 fibroblasts; Compound at 100 μM): 93%

Compound: CC1(C)C[C@]2(SCCC[S@+]2[O-])c2sccc2O1 (relative stereo) [Compound 50070, rel-(1S, 2R)-6′,7′-Dihydro-5′,5′-dimethylspiro[1,3-dithiane-2,7′-5H-thieno[3,2-b]pyran]-1-oxide]
Cell growth relative to FCS alone (%) (NIH 3T3 fibroblasts; Compound at 10 μM): 81%
Cell growth relative to FCS alone (%) (NIH 3T3 fibroblasts; Compound at 100 μM): 78%

Compound: CC1=C(C)C[C@]2(CC(C)(C)Oc3cc(S(=O)(=O)c4ccccc4)sc32)[S@+]([O-])C1 (relative stereo) [Compound 50126, rel-(1′R,2′R)-3′,6,6′,7-Tetrahydro-4′,5,5′,5-tetramethyl-2-(phenylsulphonyl)spiro[5H-thieno[3,2-b]pyran-7,2′-2H-thiopyran]1′-oxide]
IC50 [1]: 6.3 µM

Compound: CC1(C)Oc2cc(C(F)(F)C(F)(F)F)sc2[C@@H](N2CCCCC2=O)[C@@H]1O (relative stereo) [Compound 50174, rel-(6S, 78S)-2-(Pentafluoroethyl)-6,7-dihydro-6-hydroxy-5,5-dimethyl-7-(2-oxo-1-piperidinyl)-5H-thieno[3,2-b]pyran]
Cell growth potentiation relative to minoxidil at 100 μM (%) (NIH 3T3 fibroblasts; Compound at 10 μM): 244%
Cell growth potentiation relative to minoxidil at 100 μM (%) (NIH 3T3 fibroblasts; Compound at 100 μM): 133%

Compound: CC1(C)C=C(N2CCCC2=O)c2sc(C#N)cc2O1 [Compound 50040, 5,5-Dimethyl-7-(2-oxo-1-pyrrolidinyl)-5H-thieno[3,2-b]pyran-2-carbonitrile]
Cell growth potentiation relative to minoxidil at 100 μM (%) (NIH 3T3 fibroblasts; Compound at 10 μM): 24%
Cell growth potentiation relative to minoxidil at 100 μM (%) (NIH 3T3 fibroblasts; Compound at 100 μM): 48%

Compound: CC1=C(C)C(C2=CC(C)(C)Oc3cc(C#N)sc32)[S+]([O-])C1 (stereo not shown) [Compound 50106, 5,5-Dimethyl-(2,5-dihydro-3,4-dimethyl-1-oxy-thien-2-yl)-5H-thieno[3,2-b]pyran-2-carbonitrile]
Cell growth relative to FCS alone (%) (NIH 3T3 fibroblasts; Compound at 10 μM): 80%
Cell growth potentiation relative to minoxidil at 100 μM (%) (NIH 3T3 fibroblasts; Compound at 100 μM): 60%

Compound: CC1(C)Oc2cc(S(=O)(=O)c3ccccc3)sc2[C@@H](N2CCCC2=O)[C@@H]1O [Compound 50108, (?)-(6S, 7S)-6,7-Dihydro-6-hydroxy-5,5-dimethyl-7-(2-oxo-1-pyrrolidinyl)-2-(phenylsulphonyl)-5H-thieno[3,2-b]pyran]
IC50 [1]: 0.018 µM

Compound: CC1=C(C)CS(=O)(=O)C2(C1)CC(C)(C)Oc1ccsc12 (stereo not shown) [Compound 50110, 3′,6,6′,7-Tetrahydro-4′,5,5,5′-tetramethyl-spiro[5H-thieno[3,2-b]pyran-7,2′-2H-thiopyran]-1′,1′-dioxide]
IC50 [1]: 10 µM

Compound: CC1(C)CC2(CC3(C)OC3(C)CS2(=O)=O)c2sccc2O1 (stereo not shown) [Compound 50111, 4′,5′-Epoxy-3′,6,6′,7-tetrahydro-4′,5,5,5′-tetramethyl-spiro[5H-thieno[3,2-b]pyran-7,2′-2H-thiopyran]-1′,1′-dioxide]
IC50 [1]: 3 µM

Compound: Nc1cc(N2CCCCC2)nc(N)[n+]1[O-] [minoxidil, reference compound]
concentration of greatest potentiation of mitogenic activity of FCS (NIH 3T3 fibroblasts; 5% FCS, FIG. 2, 100% growth = value for 10% FCS): 100 µM

Continued, in another order:

IC50 [1]: ~3 µM
Compound: CC1=C(C)C[C@]2(CC(C)(C)Oc3ccsc32)[S@+]([O-])C1 (relative stereo) [Compound 50054, rel-(1′R, 2′R)-3′,6,6′,7-Tetrahydro-4′,5,5′,5-tetramethylspiro[5H-thieno[3,2-b]pyran-7,2′-2H-thiopyran]-1′-oxide]

IC50 [1]: ~10 µM
Compound: CC1=C(C)C[C@@]2(CC(C)(C)Oc3ccsc32)[S@+]([O-])C1 (relative stereo) [Compound 50055, rel-(1′R, 2′S)-3′,6,6′,7-Tetrahydro-4′,5,5′,5-tetramethylspiro[5N-thieno[3,2-b]pyran-7,2′-2H-thiopyran]-1′-oxide]

IC50 [1]: ~10 µM
Compound: CC1(C)C[C@@]2(SCC[S@+]2[O-])c2sccc2O1 (relative stereo) [Compound 50064, rel-(1S, 2S)-6′,7′-Dihydro-5′,5′-dimethylspiro[1,3-dithiolane-2,7′-5H-thieno[3,2-b]pyran]-1-oxide]

IC50 [1]: ~30 µM
Compound: CC1(C)C[C@]2(SCC[S@+]2[O-])c2sccc2O1 (relative stereo) [Compound 50065, rel-(1S, 2R)-6′,7′-Dihydro-5′,5′-dimethylspiro[1,3-dithiolane-2,7′-5H-thieno[3,2-b]pyran]-1-oxide]

IC50 [1]: ~100 µM
Compound: CC1(C)C[C@@]2(SCC[S@+]2[O-])c2sc(C#N)cc2O1 (relative stereo) [Compound 50067, rel-(1S, 2S)-6′,7′-Dihydro-5′,5′-dimethylspiro[1,3-dithiolane-2,7′-5H-thieno[3,2-b]pyran]-2′-carbonitrile-1-oxide]
Cell growth relative to FCS alone (%) (NIH 3T3 fibroblasts; Compound at 10 μM): 96%
Cell growth relative to FCS alone (%) (NIH 3T3 fibroblasts; Compound at 100 μM): 69%

IC50 [1]: ~30 µM
Compound: CC1(C)C[C@]2(SCC[S@+]2[O-])c2sc(C#N)cc2O1 (relative stereo) [Compound 50068, rel-(1S, 2R)-6′,7′-Dihydro-5′,5′-dimethylspiro[1,3-dithiolane-2,7′-5H-thieno[3,2-b]pyran]-2′-carbonitrile-1-oxide]

IC50 [1]: 2.3 µM
Compound: CC1=C(C)C[C@]2(CC(C)(C)Oc3cc(C#N)sc32)[S@+]([O-])C1 (relative stereo) [Compound 50096, rel-(1′R, 2′R)-3′,6,6′,7-Tetrahydro-4′,5,5′,5-tetramethyl-1′-oxospiro[5H-thieno[3,2-b]pyran-7,2′-2H-thiopyran-2-carbonitrile]

IC50 [1]: 7.4 µM
Compound: CC1=C(C)C[C@@]2(CC(C)(C)Oc3cc(S(=O)(=O)c4ccccc4)sc32)[S@+]([O-])C1 (relative stereo) [Compound 50127, rel-(1′R,2′S)-3′,6,6′,7-Tetrahydro-4′,5,5′,5-tetramethyl-2-(phenylsulphonyl)spiro[5H-thieno[3,2-b]pyran-7,2′-2H-thiopyran]1′-oxide]
